Values quoted from earlier work, collected in patent publication US10955416B2, “Compositions for detecting mutant anaplastic lymphoma kinase in human lung cancer” (CELL SIGNALING TECHNOLOGY, INC., priority 2006, dated 2021).

Tested on: lymphoma cells
Details: Marzec et al., Lab. Invest. 85(12): 1544-54 (2005); cited from earlier work

| SMILES | apoptosis in lymphoma cells | proliferation in lymphoma cells |
| --- | --- | --- |
| COc1cc2ncnc(Nc3ccc(O)cc3)c2cc1OC [WHI-131] | induce apoptosis | suppress proliferation |
| COc1cc2ncnc(Nc3ccc(O)c(Br)c3)c2cc1OC [WHI-154] | induce apoptosis | suppress proliferation |
